The values below come from ChEMBL document CHEMBL5465560, “Selectivity Literature for EUbOPEN Chemogenomic Library” (2024).

The target of test [1] is Mitogen-activated protein kinase kinase kinase 8 (Homo sapiens, UniProt P41279). As to the kind of experiment: Selectivity interaction (Kinase panel (Z-LYTE Assay)) EUB0001632a MAP3K8. The following applies: at 10 µM.
Test [2] has as its target cAMP-dependent protein kinase catalytic subunit gamma (Homo sapiens) (UniProt P22612). As to the kind of experiment: Selectivity interaction (LanthaScreen Eu Kinase Binding Assay) EUB0001632a PRKACG. As to conditions: at 10 µM. (In TR-FRET formats the signal depends on donor and acceptor labels being close together.)
Test [3] addresses T1, Serine/threonine-protein kinase D2 (Homo sapiens) (UniProt Q9BZL6).
T1 sequence (whole entry): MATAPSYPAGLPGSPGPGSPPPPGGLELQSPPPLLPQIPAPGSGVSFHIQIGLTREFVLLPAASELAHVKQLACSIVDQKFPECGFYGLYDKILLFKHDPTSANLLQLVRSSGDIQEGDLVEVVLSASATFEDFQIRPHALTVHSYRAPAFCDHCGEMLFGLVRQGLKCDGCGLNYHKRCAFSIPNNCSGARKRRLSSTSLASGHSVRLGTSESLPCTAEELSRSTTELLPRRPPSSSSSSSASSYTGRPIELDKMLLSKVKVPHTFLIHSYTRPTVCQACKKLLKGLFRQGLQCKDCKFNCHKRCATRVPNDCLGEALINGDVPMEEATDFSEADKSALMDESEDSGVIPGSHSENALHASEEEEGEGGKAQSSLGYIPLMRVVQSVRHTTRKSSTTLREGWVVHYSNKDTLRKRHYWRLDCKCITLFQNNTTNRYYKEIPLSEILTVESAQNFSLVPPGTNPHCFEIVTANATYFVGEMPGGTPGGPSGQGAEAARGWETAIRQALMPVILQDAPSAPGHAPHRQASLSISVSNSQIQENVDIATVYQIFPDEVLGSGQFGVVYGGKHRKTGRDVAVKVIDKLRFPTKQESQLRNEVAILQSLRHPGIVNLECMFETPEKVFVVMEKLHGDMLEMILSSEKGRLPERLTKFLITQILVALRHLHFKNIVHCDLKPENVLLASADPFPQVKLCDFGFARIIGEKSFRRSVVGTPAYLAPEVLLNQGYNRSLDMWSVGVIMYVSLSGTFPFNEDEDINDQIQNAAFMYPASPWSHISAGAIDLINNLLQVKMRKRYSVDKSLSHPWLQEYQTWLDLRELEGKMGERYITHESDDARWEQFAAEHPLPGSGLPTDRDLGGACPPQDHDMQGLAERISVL
As to the kind of experiment: Selectivity interaction (KinomeScan (DiscoverX)) EUB0000595a PRKD2. The following applies: at 10 µM.

The target in test [4] is Phosphatidylinositol 4-phosphate 5-kinase type-1 alpha (Homo sapiens) (UniProt Q99755). Put plainly: Selectivity interaction (KinomeScan (DiscoverX)) EUB0000695a PIP5K1A. As to conditions: at 100 nM.
Chain of Phosphatidylinositol 4-phosphate 5-kinase type-1 alpha (Homo sapiens) (Q99755 whole entry): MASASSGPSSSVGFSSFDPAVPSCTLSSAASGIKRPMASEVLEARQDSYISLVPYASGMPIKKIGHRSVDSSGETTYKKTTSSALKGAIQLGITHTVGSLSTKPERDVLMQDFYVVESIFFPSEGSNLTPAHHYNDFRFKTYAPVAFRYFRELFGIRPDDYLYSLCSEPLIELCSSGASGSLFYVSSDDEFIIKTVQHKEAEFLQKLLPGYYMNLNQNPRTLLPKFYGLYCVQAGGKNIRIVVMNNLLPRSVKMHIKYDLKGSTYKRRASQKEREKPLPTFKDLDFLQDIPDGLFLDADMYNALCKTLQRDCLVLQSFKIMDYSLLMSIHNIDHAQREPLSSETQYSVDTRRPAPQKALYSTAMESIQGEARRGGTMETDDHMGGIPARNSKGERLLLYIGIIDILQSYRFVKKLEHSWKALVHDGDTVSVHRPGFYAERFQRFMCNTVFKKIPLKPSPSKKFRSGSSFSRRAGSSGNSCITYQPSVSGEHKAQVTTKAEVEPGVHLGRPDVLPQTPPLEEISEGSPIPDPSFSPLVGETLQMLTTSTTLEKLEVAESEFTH
Test [5] deals with Serine/threonine-protein kinase PAK 4 (Homo sapiens, UniProt O96013). As to the kind of experiment: Selectivity interaction (KinomeScan (DiscoverX)) EUB0000607a PAK4. The following applies: at 10 µM.
Chain of Serine/threonine-protein kinase PAK 4 (O96013 whole entry, looked up): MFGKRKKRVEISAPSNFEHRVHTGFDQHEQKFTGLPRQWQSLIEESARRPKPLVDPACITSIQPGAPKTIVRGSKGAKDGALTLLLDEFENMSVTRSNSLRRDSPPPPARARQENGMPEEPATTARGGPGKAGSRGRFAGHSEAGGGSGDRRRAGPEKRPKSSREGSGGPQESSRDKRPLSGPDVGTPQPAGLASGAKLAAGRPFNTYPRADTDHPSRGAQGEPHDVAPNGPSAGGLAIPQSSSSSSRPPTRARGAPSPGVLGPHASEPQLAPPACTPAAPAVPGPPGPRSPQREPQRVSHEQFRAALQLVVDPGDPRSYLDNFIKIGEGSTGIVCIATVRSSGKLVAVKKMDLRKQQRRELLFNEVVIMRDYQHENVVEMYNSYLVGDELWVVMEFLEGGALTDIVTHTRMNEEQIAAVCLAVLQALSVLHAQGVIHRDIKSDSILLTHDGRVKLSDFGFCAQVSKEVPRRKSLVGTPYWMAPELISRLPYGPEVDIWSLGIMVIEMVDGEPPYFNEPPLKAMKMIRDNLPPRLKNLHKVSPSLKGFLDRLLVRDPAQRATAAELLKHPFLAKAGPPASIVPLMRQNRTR
Test [6] concerns the target Insulin receptor-related protein (Homo sapiens) (UniProt P14616). Put plainly: Selectivity interaction (SelectScreen profiling (Invitrogen)) EUB0000607a INSRR. As to conditions: at 2 µM.
The target in test [7] is Eukaryotic translation initiation factor 2-alpha kinase 1 (Homo sapiens) (UniProt Q9BQI3). Put plainly: Selectivity interaction (KinomeScan (DiscoverX)) EUB0000045b EIF2AK1.
Chain of Eukaryotic translation initiation factor 2-alpha kinase 1 (Homo sapiens) (Q9BQI3 whole entry): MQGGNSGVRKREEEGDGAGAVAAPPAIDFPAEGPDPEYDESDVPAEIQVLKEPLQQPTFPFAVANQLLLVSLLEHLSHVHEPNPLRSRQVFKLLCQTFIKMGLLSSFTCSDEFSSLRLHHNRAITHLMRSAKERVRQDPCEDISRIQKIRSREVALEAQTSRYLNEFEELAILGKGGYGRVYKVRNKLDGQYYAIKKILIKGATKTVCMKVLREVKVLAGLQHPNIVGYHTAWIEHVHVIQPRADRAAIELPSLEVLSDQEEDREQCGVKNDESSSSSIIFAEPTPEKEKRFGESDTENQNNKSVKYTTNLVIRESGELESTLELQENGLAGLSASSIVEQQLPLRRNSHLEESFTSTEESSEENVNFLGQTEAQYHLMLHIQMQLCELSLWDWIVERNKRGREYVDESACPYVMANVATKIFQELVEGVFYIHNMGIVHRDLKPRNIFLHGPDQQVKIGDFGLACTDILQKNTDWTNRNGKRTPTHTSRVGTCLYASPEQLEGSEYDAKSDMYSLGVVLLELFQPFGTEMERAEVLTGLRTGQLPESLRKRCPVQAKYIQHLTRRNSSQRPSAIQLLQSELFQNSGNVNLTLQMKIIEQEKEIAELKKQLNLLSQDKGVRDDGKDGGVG
In test [8] the target is T2, Ephrin type-A receptor 1 (Homo sapiens) (UniProt P21709).
T2 sequence (whole entry): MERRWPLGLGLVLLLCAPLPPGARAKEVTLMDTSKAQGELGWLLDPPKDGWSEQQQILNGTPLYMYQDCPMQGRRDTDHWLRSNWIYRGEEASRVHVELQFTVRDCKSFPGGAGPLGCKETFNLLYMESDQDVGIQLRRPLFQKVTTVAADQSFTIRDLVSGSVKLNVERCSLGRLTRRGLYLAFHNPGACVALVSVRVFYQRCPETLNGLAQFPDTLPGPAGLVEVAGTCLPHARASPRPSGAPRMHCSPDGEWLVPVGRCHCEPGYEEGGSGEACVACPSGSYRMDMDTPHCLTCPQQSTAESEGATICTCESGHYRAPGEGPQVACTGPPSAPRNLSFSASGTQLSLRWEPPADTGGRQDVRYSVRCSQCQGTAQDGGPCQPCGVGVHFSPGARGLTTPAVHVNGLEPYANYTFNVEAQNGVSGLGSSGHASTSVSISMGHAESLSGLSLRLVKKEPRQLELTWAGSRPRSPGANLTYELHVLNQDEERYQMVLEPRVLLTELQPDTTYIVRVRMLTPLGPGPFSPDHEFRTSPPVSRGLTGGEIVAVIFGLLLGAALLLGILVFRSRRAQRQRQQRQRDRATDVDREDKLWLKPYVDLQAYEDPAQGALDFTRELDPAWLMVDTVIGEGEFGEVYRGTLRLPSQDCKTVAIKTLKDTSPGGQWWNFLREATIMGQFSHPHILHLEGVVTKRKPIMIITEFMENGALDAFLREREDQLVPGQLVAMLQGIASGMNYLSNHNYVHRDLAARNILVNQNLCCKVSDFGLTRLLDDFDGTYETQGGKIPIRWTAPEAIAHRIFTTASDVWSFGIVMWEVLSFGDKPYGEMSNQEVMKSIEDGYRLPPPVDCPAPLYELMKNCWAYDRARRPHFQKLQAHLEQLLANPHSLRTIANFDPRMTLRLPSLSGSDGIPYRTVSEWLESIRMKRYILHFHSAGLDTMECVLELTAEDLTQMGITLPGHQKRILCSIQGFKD
Put plainly: Selectivity interaction (ProQinase) EUB0000171b EPHA1.

For test [9], the target named is Mitotic checkpoint serine/threonine-protein kinase BUB1 (Homo sapiens, UniProt O43683). Put plainly: Selectivity interaction (Ambit KINOMEscan and KiNATiv profiling in Jurkat cells) EUB0000090b BUB1. The following applies: at 1 µM. The class given is cell-based.
Chain of Mitotic checkpoint serine/threonine-protein kinase BUB1 (O43683 whole entry, looked up): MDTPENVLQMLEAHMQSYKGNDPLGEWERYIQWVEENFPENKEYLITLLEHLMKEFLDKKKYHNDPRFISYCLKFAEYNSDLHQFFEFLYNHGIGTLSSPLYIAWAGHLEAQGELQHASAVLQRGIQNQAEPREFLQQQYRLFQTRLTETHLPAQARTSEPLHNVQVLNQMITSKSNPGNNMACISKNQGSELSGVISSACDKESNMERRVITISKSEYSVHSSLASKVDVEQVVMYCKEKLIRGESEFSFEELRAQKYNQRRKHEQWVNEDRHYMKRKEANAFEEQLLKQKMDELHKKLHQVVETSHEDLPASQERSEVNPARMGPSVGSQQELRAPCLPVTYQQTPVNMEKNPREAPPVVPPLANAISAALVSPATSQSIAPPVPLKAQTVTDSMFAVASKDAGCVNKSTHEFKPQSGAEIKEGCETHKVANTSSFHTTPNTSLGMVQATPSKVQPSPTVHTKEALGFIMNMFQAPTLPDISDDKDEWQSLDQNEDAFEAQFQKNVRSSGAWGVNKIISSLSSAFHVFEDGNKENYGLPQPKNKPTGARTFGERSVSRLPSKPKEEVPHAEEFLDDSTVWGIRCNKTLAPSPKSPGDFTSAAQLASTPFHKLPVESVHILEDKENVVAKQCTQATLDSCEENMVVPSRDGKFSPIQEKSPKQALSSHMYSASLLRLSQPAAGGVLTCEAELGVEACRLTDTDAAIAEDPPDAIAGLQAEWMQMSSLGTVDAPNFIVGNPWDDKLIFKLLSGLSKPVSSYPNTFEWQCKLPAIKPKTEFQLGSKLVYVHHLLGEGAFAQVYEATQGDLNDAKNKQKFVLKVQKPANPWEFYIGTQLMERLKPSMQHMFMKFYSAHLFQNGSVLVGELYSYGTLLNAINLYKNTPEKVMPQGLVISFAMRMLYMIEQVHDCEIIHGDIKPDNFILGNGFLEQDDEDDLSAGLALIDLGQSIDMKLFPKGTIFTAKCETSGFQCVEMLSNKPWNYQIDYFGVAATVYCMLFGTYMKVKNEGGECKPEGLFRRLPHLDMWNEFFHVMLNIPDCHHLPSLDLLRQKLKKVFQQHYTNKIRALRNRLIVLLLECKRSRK
In test [10] the target is Insulin receptor-related protein (Homo sapiens) (UniProt P14616). Put plainly: Selectivity interaction (KinomeScan (DiscoverX)) EUB0001049a INSRR. The following applies: at 1 µM.
Chain of Insulin receptor-related protein (Homo sapiens) (P14616 27-742 limits assumed): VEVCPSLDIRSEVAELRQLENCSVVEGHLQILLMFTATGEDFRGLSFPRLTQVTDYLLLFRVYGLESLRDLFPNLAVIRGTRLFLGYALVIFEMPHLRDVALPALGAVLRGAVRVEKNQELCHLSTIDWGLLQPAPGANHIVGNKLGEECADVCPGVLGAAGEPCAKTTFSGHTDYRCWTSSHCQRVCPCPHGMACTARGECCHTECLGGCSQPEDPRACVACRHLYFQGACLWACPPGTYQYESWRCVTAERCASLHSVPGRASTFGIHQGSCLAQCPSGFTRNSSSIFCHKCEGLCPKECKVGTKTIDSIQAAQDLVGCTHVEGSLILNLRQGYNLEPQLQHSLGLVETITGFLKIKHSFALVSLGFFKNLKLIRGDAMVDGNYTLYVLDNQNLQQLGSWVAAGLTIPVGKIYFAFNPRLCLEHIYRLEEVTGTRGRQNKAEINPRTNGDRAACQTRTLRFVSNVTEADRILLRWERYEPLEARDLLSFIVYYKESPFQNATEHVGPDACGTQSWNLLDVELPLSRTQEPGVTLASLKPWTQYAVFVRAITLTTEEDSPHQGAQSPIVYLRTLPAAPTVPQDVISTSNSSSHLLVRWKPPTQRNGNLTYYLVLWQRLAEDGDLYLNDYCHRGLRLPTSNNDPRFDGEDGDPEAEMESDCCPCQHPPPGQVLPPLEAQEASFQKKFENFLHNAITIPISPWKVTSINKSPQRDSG
Chain of Insulin receptor-related protein (Homo sapiens) (P14616 747-1297 limits assumed): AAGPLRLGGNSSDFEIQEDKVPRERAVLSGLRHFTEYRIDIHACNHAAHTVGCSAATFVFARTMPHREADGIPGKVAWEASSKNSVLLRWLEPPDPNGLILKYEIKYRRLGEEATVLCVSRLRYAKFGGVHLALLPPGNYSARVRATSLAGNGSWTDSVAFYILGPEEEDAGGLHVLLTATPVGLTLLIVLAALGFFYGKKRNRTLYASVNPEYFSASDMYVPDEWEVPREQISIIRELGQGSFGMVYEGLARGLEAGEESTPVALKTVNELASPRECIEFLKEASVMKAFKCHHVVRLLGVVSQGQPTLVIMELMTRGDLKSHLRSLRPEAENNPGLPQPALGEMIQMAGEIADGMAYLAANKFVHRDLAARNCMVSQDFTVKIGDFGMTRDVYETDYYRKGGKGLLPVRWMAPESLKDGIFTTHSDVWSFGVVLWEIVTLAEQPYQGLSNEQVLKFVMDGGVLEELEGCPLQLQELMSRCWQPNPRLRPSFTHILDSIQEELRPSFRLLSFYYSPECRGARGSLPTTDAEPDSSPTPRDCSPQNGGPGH
For test [11], the target named is Tyrosine-protein kinase Fgr (Homo sapiens) (UniProt P09769). As to the kind of experiment: Selectivity interaction (KinomeScan (DiscoverX)) EUB0001079a FGR. The following applies: at 1 µM.
The target of test [12] is MAP kinase-interacting serine/threonine-protein kinase 2 (Homo sapiens, UniProt Q9HBH9). Put plainly: Selectivity interaction (KinomeScan (DiscoverX)) EUB0000229b MKNK2. The following applies: at 10 µM.

Chain of cAMP-dependent protein kinase catalytic subunit gamma (Homo sapiens) (P22612 2-351 limits assumed): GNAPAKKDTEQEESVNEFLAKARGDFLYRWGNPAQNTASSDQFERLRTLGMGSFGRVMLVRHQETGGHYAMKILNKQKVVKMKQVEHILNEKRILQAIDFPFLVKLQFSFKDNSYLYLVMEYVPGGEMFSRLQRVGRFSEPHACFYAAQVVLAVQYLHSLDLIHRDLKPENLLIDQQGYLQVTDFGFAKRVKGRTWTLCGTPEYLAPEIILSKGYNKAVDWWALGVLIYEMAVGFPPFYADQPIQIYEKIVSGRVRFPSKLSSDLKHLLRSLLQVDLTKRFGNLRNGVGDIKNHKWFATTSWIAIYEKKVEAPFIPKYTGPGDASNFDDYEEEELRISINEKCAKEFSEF
Chain of Mitogen-activated protein kinase kinase kinase 8 (P41279 whole entry): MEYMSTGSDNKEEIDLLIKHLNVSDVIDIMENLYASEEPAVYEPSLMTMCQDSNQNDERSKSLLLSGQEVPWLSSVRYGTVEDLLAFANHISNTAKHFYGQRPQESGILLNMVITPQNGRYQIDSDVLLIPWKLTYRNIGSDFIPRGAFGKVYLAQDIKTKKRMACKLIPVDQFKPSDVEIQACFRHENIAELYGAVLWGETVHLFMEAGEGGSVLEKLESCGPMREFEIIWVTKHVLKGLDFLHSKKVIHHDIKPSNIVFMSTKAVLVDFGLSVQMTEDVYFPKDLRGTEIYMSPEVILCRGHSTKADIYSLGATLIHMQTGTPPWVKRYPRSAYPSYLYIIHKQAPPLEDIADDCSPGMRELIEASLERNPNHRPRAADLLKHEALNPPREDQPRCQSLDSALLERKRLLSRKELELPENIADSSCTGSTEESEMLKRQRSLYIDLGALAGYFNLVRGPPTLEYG

Turning to `Cn1cc(-n2cnc3c(NCc4nc5cc(Cl)c(Cl)cc5[nH]4)nc(N4CCOCC4)nc32)cn1`, the % of control in test [1] worked out at 4.18%. Also, in [2], the % of inhibition was -38.1%.
In turn, `COCC(=O)NC/C=C/c1ccc2ncnc(Nc3ccc(Oc4ccc(C)nc4)c(C)c3)c2c1` [CP-724714] registered a % of control in test [3] of 97%.
In test [4], `Cc1cc(F)c(C(=O)Nc2cccc(-c3nncn3C(C)C)n2)cc1-n1cnc(C2CC2)c1` returned a % of control of 78%.
`CNC(=O)Nc1ccc(-c2nc(N3CC4CCC(C3)O4)c3cnn(C4CCC5(CC4)OCCO5)c3n2)cc1` yielded a % of control in test [5] of 100%. The % of inhibition in test [6] was determined as 6%.
`C=CC(=O)Nc1cc(-n2c(=O)ccc3cnc4ccc(-c5ccc(NS(C)(=O)=O)cc5)cc4c32)ccc1C`: the % of control in [7] (at 1 µM) and in [7] (at 10 µM) was 100% each time.
Turning to `C=CC(=O)Nc1cccc(C(=O)Nc2ccc(Nc3cc(-c4[nH]c(SC)nc4C)ccn3)cc2)c1`, the % of control in test [8] (at 1 µM) is 90%; in [8] (at 5 µM) it was 63%.
In [9], `CN(C)C/C=C/C(=O)Nc1ccc(C(=O)N2CCCC(Nc3ncc(Cl)c(-c4c[nH]c5ccccc45)n3)C2)cc1` (centres undefined) displayed a % of control of 96%.
Compound `COc1cc(Nc2nc(C)cc(-c3cnn4nc(OC)ccc34)n2)cc(C(F)(F)F)c1` came in with a % of control in test [10] of 86%.
The compound `Nc1cnc(N2CCc3cc(S(=O)(=O)Nc4c(F)cc(Cl)cc4F)cc(N4CCCC4=O)c32)nc1` [TP-020n] had a % of control in test [11] of 100%.
In turn, `COc1cc(N(C)c2ccnc3ccc(C(F)(F)F)cc23)cc(OC)c1OC` had a % binding in test [12] of 90%.
